Source: patent publication US20240315993A1, “ANTIPARASITIC COMPOUNDS” (Intervet Inc., priority 2021, published 2024)
Like-named read-outs stand apart in the source and are kept apart here.

Tests used:
[1] = system: Copepodids (juvenile sea lice stage of Lepeophtheirus salmonis); assay: Juvenile sea lice contact assay; conditions: Lepeophtheirus salmonis, read-out: Sea lice inhibition (% of dead+damaged copepodids)
Experimental: Copepodids (juvenile sea lice stage of Lepeophtheirus salmonis) were exposed to seawater spiked with declining concentrations of a test compound (dissolved in a DMSO sea-water mixture). Sea lice inhibition (% of dead+damaged copepodids) was assessed after approximately 24 hours of continuous exposure. The vitality of used parasites was confirmed in a negative (solvent) control group.

[2] = system: bed bugs (Cimex lectularius); assay: Guinea pig - efficacy against bed bug; format: in vivo
Experimental: (§1) Guinea pigs were locally co-infested (using an infestation device on a shaved skin area) with juvenile soft ticks (Ornithodoros moubata) and bed bugs (Cimex lectularius) before the treatment day (Day 0) to provide a baseline-negative control value. Guinea pigs were treated orally (by gavage) or subcutaneously at a dose of 5 mg/kg bodyweight of a test compound in a formulation of 10% DMF/Emulsifier+90% Aqua ad injectabilia.
(§2) Repeated local infestations with both parasites were performed at different time points after treatment. Within approximately 45 min after each infestation ten engorged ticks and ten engorged bed bugs were • collected and the percentage of dead and damaged parasites per species were • assessed approximately 24 hours following collection. The efficacy was • calculated as % of inhibition ‘killed+damaged’ parasites in a treated group in comparison to the baseline-negative control (using a modified Schneider Orelli's formula).
(§3) Results: Activity of the test compounds at different evaluation time-points (≥80% inhibition were found active): […]

[3] = system: larvae of Rhipicephalus microplus isolates with known resistance profiles; assay: Tick larvae resistance assay (larval immersion test, LIT)
Experimental: A tick resistance assay (i.e., larval immersion test, LIT) was carried out using larvae of several Rhipicephalus microplus isolates with known resistance profiles (i.e.: fully susceptible; resistant to dieldrin, coumaphos, DDT, chlorpyriphos, flumethrin, cypermethrin, amitraz, fluazuron).
Tick larvae (Rhipicephalus microplus) were immersed for approximately 3 minutes in test compound solution. Tick mortality was assessed approximately 24 hours after contact exposure. The vitality of used parasites was confirmed in negative control groups (i.e., an untreated control and a solvent control).

[4] = system: juvenile soft ticks (Ornithodoros moubata); assay: Guinea pig - efficacy against argaside tick; format: in vivo; conditions: for duration of efficacy, subcutaneous compared with oral administration: 5 mg/kg, ticks and bed bugs
Experimental: as §1, §2, §3

[5] = system: Mobile stages of sea lice (pre-adults, adults of Lepeophtheirus salmonis); assay: Adult sea lice contact assay; conditions: read-out: EC50 (sea lice inhibition, dead+damaged)
Experimental: Mobile stages of sea lice (i.e., pre-adults, adults of Lepeophtheirus salmonis) were exposed to seawater spiked with declining concentrations of a test compound (dissolved in a PEG sea-water mixture). Sea lice inhibition (% of dead+damaged sea lice) was assessed after approximately 1 and 24 hours of continuous exposure in comparison to a negative (solvent) control group.

Rhipicephalus microplus = assay: Cattle - efficacy against one-host tick; format: in vivo; conditions: 1 mg/kg topical (Compound 4: spray solution; others: DMA 92%/DEET 8% pour-on)
Experimental: Cattle were infested (whole body) with up to 3000 Rhipicephalus microplus larvae two or three times per week before and after the treatment day (Day 0). Cattle of treatment groups were treated subcutaneously or topically (spray or pour-on) at a dose of 1 mg/kg bodyweight of a test compound. As subcutaneous formulation either 2-pyrrolidon 50%/Tween 80 50% or NMP 60%/PEG300 40% was used. As topical formulation either a spray solution (DMF/Emulsifier 2%/tap water 98%) (Compound 4) or a DMA 92%/DEET 8% pour-on solution (all other compounds) or a pour-on solution containing Imwitor 988 (20%)+Miglyol 840 (QS) (Compound 453 and Compound 466) or a pour-on solution containing Miglyol 840 (QS) (Compound 453) was used. Cattle of the negative control group received only the formulation excipients of the respective administration route.
Fully engorged female ticks dropping from cattle were collected daily after treatment and counted in treatment and control groups. Efficacy was expressed using the standard ADEQ analysis method (ADEQ calculation in accordance with WAAVP guidelines for evaluating the efficacy of acaricides against ticks on ruminants; Veterinary parasitology 136 (2006) 29-43). Compounds with efficacy ≥80 percent were found active/effective. Onset of efficacy means the first Day with efficacy ≥80 percent. Duration of efficacy means the last Day with efficacy ≥80 percent.

[6] = system: Rhipicephalus appendiculatus; assay: Cattle - efficacy against multi-host ticks (Rhipicephalus appendiculatus); format: in vivo
Experimental: (§4) Cattle were treated subcutaneously or topically (pour-on) at a dose of 5 mg/kg bodyweight of a test compound (Day 0). As subcutaneous formulation NMP 60%/PEG300 40% was used, and as pour-on formulation DMA 92%/DEET 8% was used. Cattle of the negative control group received only the formulation excipients of both formulations (SC, pour-on).
(§5) Cattle were locally infested with 30 to 40 unfed adult ticks each of Rhipicephalus appendiculatus and Dermacenter variabilis (for both species sex ratio 1:1), by placing the ticks in an ear sleeve (R. appendiculatus) or a stockinet patch attached to the body side (D. variabilis) once before treatment, and at different time points after treatment. Free (i.e., non-attached ticks) were removed from ear sleeves/stockinet patches two days after each infestation and were excluded from the efficacy calculation.
(§6) Compounds with efficacy ≥80 percent were found active.

Dermacenter variabilis = assay: Cattle - efficacy against multi-host ticks (Dermacenter variabilis); format: in vivo
Experimental: as §4, §5, §6

[7] = 5 mg/kg subcutaneous, after 7 days
[8] = 5 mg/kg subcutaneous, after 10 days
[9] = 5 mg/kg subcutaneous, after 14 days
[10] = 5 mg/kg subcutaneous, after 17 days
[11] = 5 mg/kg subcutaneous, re-infested after 7 days
[12] = 5 mg/kg subcutaneous, re-infested after 14 days
[13] = 5 mg/kg subcutaneous, re-infested after 21 days
[14] = 5 mg/kg subcutaneous, therapeutic, Day 2
[15] = 5 mg/kg topical pour-on, re-infested after 7 days
[16] = 5 mg/kg topical pour-on, re-infested after 14 days
[17] = 5 mg/kg topical pour-on, re-infested after 21 days
[18] = 5 mg/kg topical pour-on, re-infested after 28 days
[19] = 5 mg/kg subcutaneous, re-infested after 28 days
[20] = 5 mg/kg topical pour-on, re-infested after 35 days
[21] = 5 mg/kg topical pour-on, therapeutic, Day 2
[22] = 5 mg/kg, both administration routes (topical, subcutaneous)

## O=C(Nc1ccc(F)cc1)c1cc(NC(=O)[C@H]2[C@H](c3cc(Cl)cc(Cl)c3)C2(Cl)Cl)ccc1F [Compound 446]
[1]; 24 h
  inhibition at 0.001 µM: 100%
[2]; 5 mg/kg oral, Day 0
  activity against bed bugs (≥80% inhibition, killed+damaged): immediate activity
[2]; 5 mg/kg oral, after 7 days
  activity against bed bugs (≥80% inhibition, killed+damaged): activity
[2]; 5 mg/kg subcutaneous, Day 0
  activity against bed bugs (≥80% inhibition, killed+damaged): immediate activity
[2]; [7]
  activity against bed bugs (≥80% inhibition, killed+damaged): activity
[2]; [8]
  activity against bed bugs (≥80% inhibition, killed+damaged): activity
[2]; [9]
  activity against bed bugs (≥80% inhibition, killed+damaged): activity
[2]; [10]
  activity against bed bugs (≥80% inhibition, killed+damaged): activity
[2]; 5 mg/kg subcutaneous, after 21 days
  activity against bed bugs (≥80% inhibition, killed+damaged): activity
[2]; 5 mg/kg subcutaneous, after 24 days
  activity against bed bugs (≥80% inhibition, killed+damaged): activity
[3]; isolate resistant to Coumaphos, Flumethrin, Cypermethrin
  LC50: 0.353 ppm
[3]; isolate resistant to Coumaphos, Flumethrin, Cypermethrin, Amitraz
  LC50: 0.48 ppm
[3]; isolate resistant to DDT, Dieldrin, Coumaphos
  LC50: 0.31 ppm
[3]; isolate resistant to DDT, Dieldrin, Coumaphos, Chlorpyriphos
  LC50: 0.463 ppm
[3]; isolate resistant to Dieldrin, Coumaphos, Fluazuron
  LC50: 0.322 ppm
[3]; isolate: Fully susceptible
  LC50: 0.344 ppm
[4]; 5 mg/kg oral, Day 0
  activity against tick nymphs (≥80% inhibition, killed+damaged): immediate activity
[4]; 5 mg/kg subcutaneous, Day 0
  activity against tick nymphs (≥80% inhibition, killed+damaged): immediate activity
[4]; [7]
  activity against tick nymphs (≥80% inhibition, killed+damaged): activity
[4]; [8]
  activity against tick nymphs (≥80% inhibition, killed+damaged): activity
[4]; [9]
  activity against tick nymphs (≥80% inhibition, killed+damaged): activity
[4]; [10]
  activity against tick nymphs (≥80% inhibition, killed+damaged): activity
[4]
  duration of efficacy, subcutaneous compared with oral administration: longer duration of efficacy
[5]
  EC50: ≤ 10 nM
Rhipicephalus microplus
  duration of efficacy (last Day with efficacy ≥80 percent): 47 days
  onset of efficacy (first Day with efficacy ≥80 percent): 3 days
[6]; [11]
  efficacy ≥80 percent against Rhipicephalus appendiculatus: prophylactic efficacy
[6]; [12]
  efficacy ≥80 percent against Rhipicephalus appendiculatus: prophylactic efficacy
[6]; [13]
  efficacy ≥80 percent against Rhipicephalus appendiculatus: prophylactic efficacy
[6]; [14]
  efficacy ≥80 percent against Rhipicephalus appendiculatus: therapeutic efficacy
[6]; [15]
  efficacy ≥80 percent against Rhipicephalus appendiculatus: prophylactic efficacy
[6]; [16]
  efficacy ≥80 percent against Rhipicephalus appendiculatus: prophylactic efficacy
[6]; [17]
  efficacy ≥80 percent against Rhipicephalus appendiculatus: prophylactic efficacy
[6]; [18]
  efficacy ≥80 percent against Rhipicephalus appendiculatus: prophylactic efficacy
Dermacenter variabilis; [11]
  efficacy ≥80 percent against Dermacenter variabilis: prophylactic efficacy
Dermacenter variabilis; [12]
  efficacy ≥80 percent against Dermacenter variabilis: prophylactic efficacy
Dermacenter variabilis; [13]
  efficacy ≥80 percent against Dermacenter variabilis: prophylactic efficacy
Dermacenter variabilis; [19]
  efficacy ≥80 percent against Dermacenter variabilis: prophylactic efficacy
Dermacenter variabilis; [14]
  efficacy ≥80 percent against Dermacenter variabilis: therapeutic efficacy
Dermacenter variabilis; [15]
  efficacy ≥80 percent against Dermacenter variabilis: prophylactic efficacy
Dermacenter variabilis; [16]
  efficacy ≥80 percent against Dermacenter variabilis: prophylactic efficacy
Dermacenter variabilis; [17]
  efficacy ≥80 percent against Dermacenter variabilis: prophylactic efficacy
Dermacenter variabilis; [18]
  efficacy ≥80 percent against Dermacenter variabilis: prophylactic efficacy
Dermacenter variabilis; [20]
  efficacy ≥80 percent against Dermacenter variabilis: prophylactic efficacy
Dermacenter variabilis; [21]
  efficacy ≥80 percent against Dermacenter variabilis: therapeutic efficacy

## O=C(Nc1ccc(F)cc1F)c1cc(NC(=O)[C@H]2[C@H](c3cc(Cl)cc(Cl)c3)C2(Cl)Cl)ccc1F [Compound 447]
[1]; 10 nM in seawater, ~24 h
  inhibition at 0.01 µM: 100%
[2]; 5 mg/kg oral, Day 0
  activity against bed bugs (≥80% inhibition, killed+damaged): immediate activity
[2]; 5 mg/kg oral, after 7 days
  activity against bed bugs (≥80% inhibition, killed+damaged): activity
[2]; 5 mg/kg subcutaneous, Day 0
  activity against bed bugs (≥80% inhibition, killed+damaged): immediate activity
[2]; [7]
  activity against bed bugs (≥80% inhibition, killed+damaged): activity
[2]; [8]
  activity against bed bugs (≥80% inhibition, killed+damaged): activity
[4]; 5 mg/kg oral, Day 0
  activity against tick nymphs (≥80% inhibition, killed+damaged): immediate activity
[4]; 5 mg/kg oral, after 7 days
  activity against tick nymphs (≥80% inhibition, killed+damaged): activity
[4]; 5 mg/kg subcutaneous, Day 0
  activity against tick nymphs (≥80% inhibition, killed+damaged): immediate activity
[4]; [7]
  activity against tick nymphs (≥80% inhibition, killed+damaged): activity
[4]; [8]
  activity against tick nymphs (≥80% inhibition, killed+damaged): activity
[4]; [9]
  activity against tick nymphs (≥80% inhibition, killed+damaged): activity
[4]; [10]
  activity against tick nymphs (≥80% inhibition, killed+damaged): activity
[4]
  duration of efficacy, subcutaneous compared with oral administration: longer duration of efficacy
[5]; pre-adults/adults, assessed after ~1 and 24 h
  EC50: ≤ 10 nM
Rhipicephalus microplus
  duration of efficacy (last Day with efficacy ≥80 percent): ≥ 57 days
  onset of efficacy (first Day with efficacy ≥80 percent): 4 days
[6]; [13]
  efficacy ≥80 percent against Rhipicephalus appendiculatus: prophylactic efficacy
[6]; [14]
  efficacy ≥80 percent against Rhipicephalus appendiculatus: therapeutic efficacy
[6]; [15]
  efficacy ≥80 percent against Rhipicephalus appendiculatus: prophylactic efficacy
[6]; [16]
  efficacy ≥80 percent against Rhipicephalus appendiculatus: prophylactic efficacy
[6]; [18]
  efficacy ≥80 percent against Rhipicephalus appendiculatus: prophylactic efficacy
[6]; [20]
  efficacy ≥80 percent against Rhipicephalus appendiculatus: prophylactic efficacy
[6]; [21]
  efficacy ≥80 percent against Rhipicephalus appendiculatus: therapeutic efficacy
[6]; [22]
  effective in treating existing tick infestations: 100%
Dermacenter variabilis; [11]
  efficacy ≥80 percent against Dermacenter variabilis: prophylactic efficacy
Dermacenter variabilis; [19]
  efficacy ≥80 percent against Dermacenter variabilis: prophylactic efficacy
Dermacenter variabilis; [14]
  efficacy ≥80 percent against Dermacenter variabilis: therapeutic efficacy
Dermacenter variabilis; [15]
  efficacy ≥80 percent against Dermacenter variabilis: prophylactic efficacy
Dermacenter variabilis; [18]
  efficacy ≥80 percent against Dermacenter variabilis: prophylactic efficacy
Dermacenter variabilis; [21]
  efficacy ≥80 percent against Dermacenter variabilis: therapeutic efficacy
Dermacenter variabilis; [22]
  effective in treating existing tick infestations: 100%
